# Results taken from patent publication US5118346A, “Biocidally active compounds” (Ciba-Geigy Corporation, priority 1988, dated 1992).
# Read-outs that look alike come from different tables or passages of the source.
# Key:
# [1] = tested on: Chaetomium globosum; assay: Determination of the MIC against fungi, agar incorporation test; assay type: cell-based; conditions: for MIC: read-out: MIC against fungi, strain D
# Procedure: (§1) Strains: A) Aspergillus niger, B) Sacharomyces cerevisiae, C) Penicillium funiculosum, D) Chaetomium globosum, E) Aureobasidium pullulans and F) Coniophora puteana.
# (§2) The investigation is carried out by the known agar incorporation test in malt extract agar (Merck). For the inhibition, the various compounds are in each case added in an amount such that concentrations of 10, 50 and 100 mg/1 result in the agar. The concentrations (mg/1) required for inhibiting the growth of the fungi (starting from fungus spores dripped on) are illustrated in Table 2.
# [2] = tested on: Aspergillus niger; assay: as above; assay type: cell-based; conditions: for MIC: read-out: MIC against fungi, strain A
# Procedure: as §1, §2
# [3] = tested on: Coniophora puteana; assay: as above; assay type: cell-based; conditions: for MIC: read-out: MIC against fungi, strain F
# Procedure: as §1, §2
# [4] = tested on: Sacharomyces cerevisiae; assay: as above; assay type: cell-based; conditions: for MIC: read-out: MIC against fungi, strain B
# Procedure: as §1
# (§3) The investigation is carried out by the known agar incorporation test in malt extract agar (Merck).
# [5] = tested on: Penicillium funiculosum; assay: as above; assay type: cell-based; conditions: for MIC: Talaromyces funiculosus, read-out: MIC against fungi, strain C
# Procedure: as §1, §3
# [6] = tested on: Aureobasidium pullulans; assay: as above; assay type: cell-based; conditions: for MIC: read-out: MIC against fungi, strain E
# Procedure: as §1, §3
# [7] = tested on: mixture of algae Chlorella vulgaris, Chlorella spec. and Scenedesmus obliques; assay: Algicide test in polyisobutylene roof sheeting; assay type: cell-based; conditions: for algae growth after 6 weeks: comparison film 2; for algae growth after 3 weeks: comparison film 2-3
# Procedure: To test the activity against attack by algae, various concentrations, which can be seen from Table 3, of the compound according to Example 1 are incorporated into roof sheeting consisting of polyisobutylene. A roof sheeting without biocide is investigated as a comparison.
# A 1 cm^2 piece of film from each test strip is kept in water for 5 days, in each case placed on an algae agar plate and inoculated with 0.1 ml of a 1+1+1 mixture of 14-day cultures of the algae Chlorella vulgaris and Chlorella spec. (isolated from damage cases in practice) and Scenedesmus obliques, which had been diluted 1/10 in saline.
# After 3 weeks, the plates are evaluated and the films are placed in fresh agar and inoculated again.
# Evaluation of the growth after 3 and 6 weeks under artificial light is performed in accordance with the following scheme.
# 2=partial growth on the film
# 3=growth up to the edge of the film
# 4=inhibiting aerola around the film <5 mm
# 5=inhibiting aerola around the film >5 mm
# Example 19 is repeated, except that instead of the stated concentrations of compound according to Example 1 alone, a combination of 1% by weight of the compound according to Example 1 and 0.07% by weight of 2-methylthio-4-t-butylamino-6-cyclopropylamino-s-triazine is used.
# [8] = tested on: Coniophora puteana; assay: Limit of activity against wood-destroying Basidiomycetes (EN 113); parameters: species or system Coniophora puteana (Schumacher ex Fries) Karsten; conditions: Coniophora puteana strain 91, pine, isopropanol/water (1:1), 16 weeks
# Description: (§4) Determination of the limit of the activity against wood-destroying Basidiomycetes bred on agar (in accordance with EN 113). The test methods described in this European Standard is a laboratory method which forms a basis for evaluation of the activity of a wood preservative against wood-destroying Basidiomycetes.
# Coniophora puteana (Schumacher ex Fries) Karsten, strain FPRL 11E, for soft timbers=strain 91, Breeding of the strain and composition of the nutrient medium were as described in EN 113.
# (§5) Solutions of isopropanol/water (1:1) containing 0.2%, 0.5%, 1%, 2% and 5% of active substance according to Example 1 are prepared.
# (§6) The specimen woods of pine, nominal dimensions: 50 mm×25 mm×15 mm, are obtained and prepared as described in EN 113.
# (§7) The impregnation according to EN 113 ensures complete thorough impregnation of the specimen woods with the wood preservative solution.
# (§8) The amount of preservative absorbed is converted into weight per unit volume of the wood. […]
# (§9) The limit of the activity of a wood preservative is determined by the two amounts of wood preservative which correspond to the lowest concentration which preserves the wood and the next lowest concentration in the series, at which the wood is no longer adequately preserved. […]
# [9] = tested on: hydroids; assay: Anti-fouling paint exposure in the North Sea; conditions: 61/2 weeks, 0 = completely covered with growth, 10 = completely free
# Procedure: (§10) To test the activity against growth on objects immersed in the sea, the compound according to Example 1 is incorporated into anti-fouling paints. An anti-fouling paint such as is known to the expert and which is based on vinyl chloride copolymer/rosin (2/1 part by weight) with a pigment volume concentration of about 40%, and a second anti-fouling paint of similar make-up but with a higher rosin content (vinyl chloride copolymer/rosin=1/1) are prepared. The compound according to Example 1 is incorporated into these paints, the paint is brushed onto specimen sheets and, after drying (10 days), the sheets are suspended in the North Sea. The corresponding paints but without adding of the product are exposed in the same way for comparison. On a rating scale of 0 (=completely covered with growth) to 10 (=completely free from growth), the following results are obtained after exposure for 61/2 weeks (growth by hydroids=HY; growth by barnacles=BA): […]
# [10] = tested on: barnacles; assay: Anti-fouling paint exposure in the North Sea; conditions: 61/2 weeks, 0 = completely covered with growth, 10 = completely free
# Procedure: as §10
# [11] = tested on: Gleophyllum trabeum; assay: Limit of activity against wood-destroying Basidiomycetes (EN 113); parameters: species or system Gloeophyllum trabeum (Persoon ex Fries) Murrill; conditions: Gleophyllum trabeum strain 94, pine, 16 weeks
# Description: as §4
# Gloeophyllum trabeum (Persoon ex Fries) Murrill, strain […], for soft timbers=strain 94, Breeding of the strain and composition of the nutrient medium were as described in EN 113.
# as §5, §6, §7, §8, §9
# [12] = tested on: Poria placenta; assay: as above; parameters: species or system Poria placenta (Fries) Cooke sensu. J. Eriksson; conditions: Poria placenta strain 96, pine, isopropanol/water (1:1), 16 weeks
# Description: as §4
# Poria placenta (Fries) Cooke sensu. J. Eriksson, strain SPRL 280, for soft timbers=strain 96, Breeding of the strain and composition of the nutrient medium were as described in EN 113.
# as §5, §6, §7, §8, §9
# [13] = tested on: wood-destroying fungi; assay: Limit of activity against wood-destroying Basidiomycetes (EN 113), summary
# Description: as §4
# [14] = malt extract agar, tested 10, 50, 100 mg/l
# [15] = Sacharomyces cerevisiae, malt extract agar, tested 10, 50, 100 mg/l
# [16] = Penicillium funiculosum, malt extract agar, tested 10, 50, 100 mg/l
Compound,"MIC [1, 14] [µg/mL]","MIC [2, 14] [µg/mL]","MIC [3, 14] [µg/mL]","MIC [4, 15] [µg/mL]","MIC [5, 16] [µg/mL]","MIC [6, 14] [µg/mL]",MIC [2] [µg/mL],other results
"CCCCCCCCCCCC[P+](c1ccccc1)(c1ccccc1)c1ccccc1 [Example 3, Triphenyl-n-dodecylphosphonium tetrafluoborate]",–,–,–,–,–,–,100,MIC [1]: 50 µg/mL; MIC [3]: 50 µg/mL; MIC [4]: 50 µg/mL; MIC [5]: 10 µg/mL; MIC [6]: 10 µg/mL
"CCCCCCCCCCCC[N+](CCO)(CCO)Cc1ccccc1 [Example 6, Bis(hydroxyethyl)benzyl-n-dodecylammonium tetrafluoborate]",50,–,50,50,10,10,> 100,–
CCCCCCCCCCCCCC[N+](CC)(CC)CC [Example 8],50,50,50,–,–,–,–,–
CCCCCCCCCCCC[N+]1(Cc2ccccc2)CCOCC1 [Example 14],–,–,50,–,50,–,> 100,MIC [1]: 100 µg/mL; MIC [4]: > 100 µg/mL; MIC [6]: 10 µg/mL
CCCCCCCCCCCC[N+](CC)(CC)CC [Example 7],100,> 100,50,> 100,50,50,–,–
"CCCCCCCCCCCCCC[N+](CCCC)(CCCC)CCCC [Example 5, Tri-n-butyl-n-tetradecylammonium tetrafluoborate]",50,–,–,50,50,50,100,MIC [3]: 100 µg/mL
"CCCCCCCCCCCCCC[P+](CCCC)(CCCC)CCCC [Example 2, Tri-n-butyl-n-tetradecylphosphonium hexafluophosphate]",–,–,–,–,–,–,–,"MIC against fungi, strain D [1, 14]: 100 µg/mL; MIC against fungi, strain A [2, 14]: 100 µg/mL; MIC against fungi, strain F [3, 14]: 100 µg/mL; MIC against fungi, strain B [4, 15]: 10 µg/mL; MIC against fungi, strain C [5, 16]: 10 µg/mL; MIC against fungi, strain E [6, 14]: 50 µg/mL"

# More lines, main results first:
"MIC [1, 14] [µg/mL]","MIC [2, 14] [µg/mL]","MIC [3, 14] [µg/mL]","MIC [4, 15] [µg/mL]","MIC [5, 16] [µg/mL]","MIC [6, 14] [µg/mL]",Compound,MIC [2] [µg/mL],other results
100,100,10,100,10,50,CCCCCCCCCCCCCCCC[N+](CC)(CC)CC [Example 13],–,–
–,50,–,10,10,50,"CCCCCCCCCCCCCC[P+](CCCC)(CCCC)CCCC [Example 1, Tri-n-butyl-n-tetradecylphosphonium tetrafluoborate]",–,"MIC against fungi, strain D [1, 14]: 10 µg/mL; MIC against fungi, strain F [3, 14]: 10 µg/mL; algae growth after 6 weeks ([7]; 0,1 % by weight in film): 4 (inhibiting aerola around the film <5 mm); algae growth after 3 weeks ([7]; 0,1 % by weight in film): 4 (inhibiting aerola around the film <5 mm); algae growth after 6 weeks ([7]; 0,5 % by weight in film): 4 (inhibiting aerola around the film <5 mm); algae growth after 3 weeks ([7]; 0,5 % by weight in film): 4 (inhibiting aerola around the film <5 mm); algae growth after 6 weeks ([7]; 1 % by weight in film): 4 (inhibiting aerola around the film <5 mm); algae growth after 3 weeks ([7]; 1 % by weight in film): 4 (inhibiting aerola around the film <5 mm); Effective concentration [8]: 0.5-1.0%; growth by hydroids (HY), rating ([9]; Vinyl/rosin 1:1 paint with additive, without additive HY 0): 4; growth by hydroids (HY), rating ([9]; Vinyl/rosin 2:1 paint with additive, without additive HY 5): 8; growth by barnacles (BA), rating ([10]; Vinyl/rosin 1:1 paint with additive, without additive BA 0): 10; growth by barnacles (BA), rating ([10]; Vinyl/rosin 2:1 paint with additive, without additive BA 5): 8; Take-up (limit of the activity) [11]: ≤ 1.0 kg/m^3; Effective concentration ([11]; isopropanol/water (1:1)): ≤ 0.2%; Effective concentration [12]: 1.0-2.0%; activity against wood-destroying fungi [13]: highly effective"
50,> 100,50,> 100,50,50,CCCCCCCCCCCCCCCCCC[N+](CC)(CC)CC [Example 9],–,–
50,100,10,100,50,10,CCCCCCCCCCCCCC[N+](CCC)(CCC)CCC [Example 10],–,–
